Ends that are not written are not given here.
Experiments:
[1] = tested on: MCF-7 tumor-burdened tibiae; experiment: In vivo fluorescence imaging of mice intratibially injected with MCF-7 cells; conditions: CD-1 nude mice, intratibial MCF-7, 100 μl of 40 μM probe, NightOwl imaging for 20 min, plateau values, n = 3, p<0.05 (S2E Fig)
Description: (§1) In vivo binding of Alexa 633-kisspeptin was tested in immune competent BALB/c and CD-1 nude mice, inoculated with MOPC cells and MCF-7 cells, respectively. All experiments were performed according to the German regulations for animal experimentation. The study was approved by the Regierung von Unterfranken as the responsible authority (Permit Number 55.2–2531.01-76/10 and -103/11) and by the institutional authorities of the Ethics Committee for Animal Experiments at the Christian Albrechts University of Kiel (V242-7224.121–17). 1x10^6 MCF-7 cells transfected with the near-infrared fluorescent protein [31] were suspended in 5 μl PBS and injected directly into the right tibia, with equal amounts of PBS injected into contralateral control limbs, of 3 female CD-1 nude mice (Charles River). Tumor progression was monitored using the NightOwl planar imaging system (Berthold Technologies, Bad Wildbad, Germany). […]
(§2) Supplementary file pone.0155087.s002.tif: S2 Fig Alexa 633-kisspeptin binds to the KISS1R-expressing cell line MCF-7 in vitro and in vivo. Cultured MCF-7 cells were incubated with either free dye or dye conjugated to the modified kisspeptin and imaged with fluorescence microscopy (A). […] Tibia fluorescence was quantified over time (D) and plateau fluorescent values determined (E). […]

[2] = tested on: KISS1R-expressing cell line MCF-7; experiment: Fluorescence microscopy of probe binding to cultured MCF-7 cells; format: cell-based, human; conditions: S2A Fig
Description: MSCs were seeded in a Nunc^TM Lab-Tek^TM II 4-well chamber slide (6.7x10^3 cells/well) (Thermo Fischer Scientific GmbH, Erlangen, Germany) and allowed to attach overnight. Afterwards, the medium was replaced by 500 μl mixed media, 1:1 (v/v), followed by 24 h incubation. The day after, 500 μl mixed media, 1:1 (v/v) containing 1x10^4 INA-6 cells or 1.5x10^5 MOPC cells, 500 μl MM cell-derived supernatant (conditioned media) or 500 μl mixed media, 1:1 (v/v) (control) was added per well. […] After rinsing three times with PBS, cells were fixed in 4% paraformaldehyde and mounted with Vectashield mounting media for fluorescence containing 4',6-diamidino-2-phenylindole (Vector Laboratories, Inc., purchased from Linaris, Dossenheim, Germany). Images were acquired using a BZ-9000 fluorescence microscope (Cy5 filter) and the softwares BZ-II Viewer and BZ-II Analyzer 2.1 (all from Keyence, Neu-Isenburg, Germany).
as §2

[3] = tested on: MOPC315.BM2-LucGFP MM bone lesions; experiment: In vivo time-lapse fluorescence imaging of MM bone lesions (MOPC model); conditions: BALB/c mice with MOPC lesions in one hind leg, 100 μl of 40 μM probe i.v., imaged for 1 h, relative to pre-scan, n = 6, p<0.01 (Fig 5E)
Description: as §1, with “Germany). 1x10^5 MOPC cells, suspended in 100 μl PBS, were injected i.v. via the lateral tail vein into immune-competent female BALB/c mice (Charles River). 19 days after the injection of the MM cells, mice were imaged by in vivo bioluminescence (BLI) to identify 6 mice which contain lesions in only one of the hind legs. All animals were kept in temperature and humidity-controlled, pathogen-free environment, with a 12 h light/dark cycle, and access to food and water ad libitum.” for “Germany).”

[4] = mouse, in vivo, iv
Description: BLI was performed with an IVIS Spectrum (Caliper-Xenogen, Alameda, CA, USA) as previously described [32]. Briefly, mice were anesthetized i.p. with a mixture of ketamine (100 mg/kg) and xylazine (10 mg/kg) in PBS. Luciferin (150 mg/kg) was co-injected and BLI measurements were started 10 min later. For MCF-7 mice, animals were imaged every minute following injection of 100 μl of Alexa 633-kisspeptin (40 μM) using the NightOwl. For MM-containing mice, a fluorescence pre-scan (excitation filter: 605 nm, emission filter: 660 nm; illumination time: 1 s) was performed using the IVIS Spectrum. Next, mice were injected with 100 μl of Alexa 633-kisspeptin (40 μM) in the lateral tail vein and immediately imaged every two minutes for up to 20 min using the fluorescence settings as described above. In addition, fluorescent images were acquired after 30, 45, and 60 min. At the end of the experiment mice were then euthanized, organs were prepared, and fluorescence ex vivo imaging of the organs was performed. Imaging data was analyzed with Living Image 4.0 (Caliper-Xenogen, Alameda, CA, USA) and Prism 5 software (GraphPad, La Jolla, CA, USA).
All statistical analyses were conducted using Prism 5 software. Comparison between groups was made using either a paired or unpaired two-sample t-tests. Comparison of organ fluorescence was conducted using a 1-way ANOVA and Turkey’s multiple comparison test. Alexa 633-kisspeptin binding kinetics were quantified using association then dissociation curves with time0 = 25 min and NS = 1. P values of <0.05 were considered to be statistically significant.

[5] = tested on: primary MSCs (KISS1R); experiment: Fluorescence microscopy of probe binding to primary MSCs (alone, conditioned media, direct co-culture with MM cells); format: cell-based, human; conditions: for binding to primary MSCs under normal culture conditions: MSCs alone, room temperature, fluorescence microscopy (Cy5 filter), Fig 4A; for binding to primary MSCs under normal culture conditions / binding to MSCs and MM cells after direct co-culture: 30 min incubation, 40 μmol/l; for binding to MSCs and MM cells after direct co-culture: MSCs directly co-cultured 24 h with INA-6 or MOPC cells
Description: MSCs were seeded in a Nunc^TM Lab-Tek^TM II 4-well chamber slide (6.7x10^3 cells/well) (Thermo Fischer Scientific GmbH, Erlangen, Germany) and allowed to attach overnight. Afterwards, the medium was replaced by 500 μl mixed media, 1:1 (v/v), followed by 24 h incubation. The day after, 500 μl mixed media, 1:1 (v/v) containing 1x10^4 INA-6 cells or 1.5x10^5 MOPC cells, 500 μl MM cell-derived supernatant (conditioned media) or 500 μl mixed media, 1:1 (v/v) (control) was added per well. For preparation of the conditioned media, INA-6 cells (2x10^5 cells/ml) or MOPC cells (3.75x10^4 cells/ml) were cultured for one day in mixed media, 1:1 (v/v), followed by centrifugation (270 g, 5 min) and filtration of the supernatant (filter pore size: 0.45 μm). After 24 h, cells were incubated for 30 min with either free dye or the Alexa 633-kisspeptin (40 μmol/l) at room temperature. After rinsing three times with PBS, cells were fixed in 4% paraformaldehyde and mounted with Vectashield mounting media for fluorescence containing 4',6-diamidino-2-phenylindole (Vector Laboratories, Inc., purchased from Linaris, Dossenheim, Germany). Images were acquired using a BZ-9000 fluorescence microscope (Cy5 filter) and the softwares BZ-II Viewer and BZ-II Analyzer 2.1 (all from Keyence, Neu-Isenburg, Germany).

[6] = tested on: matrix metalloproteinase 2; conditions: cited from earlier work
From the text: The data presented herein support KISS1R as a novel and promising new biomarker for myeloma bone disease, but still several questions remain. Firstly, while we have described the up-regulation of the KISS1R cells directly interacting with MM cells, little is known so far about the role of kisspeptin and the KISS1R in MM disease progression. It will be of great importance to understand the role of kisspeptin and the KISS1R in both bone marrow cells and MM, and to be aware of what potential side effects, either positive or negative, may be associated with targeting or activation of this system. ...

[7] = compared with 10, 13 and 14 amino acid isoforms; cited from earlier work

Row | Substance | fluorescence signal in tumor-burdened tibiae relative to contralateral controls [1] | binding to MCF-7 cells in vitro [2] | peak fluorescence in tumor-burdened limbs compared to contralateral sites [3] | organ uptake: kidney fluorescence [4] | organ uptake: liver fluorescence [4] | organ uptake: ovaries [4] | binding to MSCs cultured in MM cell conditioned media ([5]; MSCs 24 h in INA-6 or MOPC conditioned media, 30 min with 40 μmol/l probe, Fig 4B) | binding to primary MSCs under normal culture conditions [5] | binding to MSCs and MM cells after direct co-culture ([5]; Fig 4B) | cleavage by matrix metalloproteinase 2 [6] | stability of the 54 amino acid form relative to the shorter isoforms [7]
1 | Alexa 633-kisspeptin: 54 amino acid kisspeptin with an N-terminal cysteine residue, labeled with Alexa Fluor 633 C5 Maleimide (C(Alexa Fluor 633 C5 maleimide)GTSLSPPPESSGSPQQPGLSAPHSRQIPAPQGAVLVQREKDLPNYNWNSFGLRF; ends and bridges not checked) | significantly elevated signals | bound | Significantly greater peak fluorescence levels | significantly high levels of fluorescence | significantly high levels of fluorescence | a notable amount of probe was also detected | low level probe binding | low level, heterogeneous binding | at high levels | – | –
2 | Alexa Fluor 633 C5 Maleimide [free dye, reference compound] | – | – | – | – | – | – | – | no notable fluorescence | failed to show any specific binding | – | –
3 | kisspeptin | – | – | – | – | – | – | – | – | – | cleaved and inactivated | higher stability

Source: PMC4861277, “The KISS1 Receptor as an In Vivo Microenvironment Imaging Biomarker of Multiple Myeloma Bone Disease” (PLoS ONE, 2016)
